Where a name gives a salt, the structure may show the parent alone.
Tests used:
[1] = Solubility / reprecipitation of estramustine derivative with cyclodextrins (general statements); assay type: physicochemical; conditions: for effects of reprecipitation induced by cations: calcium or other cations
[2] = EPS in solution after addition of calcium chloride to solution of EPS and cyclodextrin, pH 3.1, UV spectroscopy (Examples 2-4); assay type: physicochemical; conditions: about 1 mg/ml EPS
Description: (§1) The samples were filtered and the quantity of Estramustine-17-phosphate disodium salt in solution was assayed by UV spectroscopy.
as §1, §1

[3] = Reprecipitation of EPS by calcium chloride in pH 3.1 buffer, EPS in solution assayed by UV spectroscopy (Example 1); assay type: physicochemical; conditions: 640 mcg/ml EPS, pH 3.1 HCl/KCl buffer (I=0.1)
Description: To a solution in a pH 3.1 HCl/KCl buffer (I=0.1), containing 640 mcg/ml of Estramustine-17-phosphate disodium salt (EPS), were added appropriate quantities of calcium chloride in order to have drug:salt molar ratios in the range from 1:0 to 1:1. The samples were filtered and the quantity of Estramustine-17-phosphate sodium salt in solution was assayed by UV spectroscopy.

[4] = Solubilization by cyclodextrins of previously formed precipitate of EPS with calcium, pH 3.1, UV spectroscopy (Examples 5-7); assay type: physicochemical; conditions: about 1 mg/ml EPS, CD added to preformed precipitate
Description: The samples were filtered and the quantity of Estramustine disodium salt in solution was assayed by UV spectroscopy.
as §1, §1

[5] = oral administration; interaction with foods and drinks; cited from earlier work

With C[C@]12CC[C@@H]3c4ccc(OC(=O)N(CCCl)CCCl)cc4CC[C@H]3[C@@H]1CC[C@@H]2OP(=O)(O)O [EPS, Estramustine-17-phosphate disodium salt] the “solubility of the drug itself” value ([1]; when mixed with cyclodextrins) was “does not change in a significant way”, the “effects of reprecipitation induced by cations” value ([1]; with cyclodextrins, disodium salt) was “quite negligible” and the EPS in solution ([2]; EPS:CD:CaCl2 molar ratio 1:0:1 (no CD)) was 16%. The EPS in solution ([2]; EPS:CD:CaCl2 molar ratio 1:0:2 (no CD)) was 4%, the EPS in solution ([2]; EPS:CD:CaCl2 molar ratio 1:0:4 (no CD)) was 4% and the EPS in solution ([3]; EPS:CaCl2 molar ratio 1:0) was 100%. For the same molecule, the EPS in solution ([3]; EPS:CaCl2 molar ratio 1:0.25) was 42%, the EPS in solution ([3]; EPS:CaCl2 molar ratio 1:0.5) was 21% and the EPS in solution ([3]; EPS:CaCl2 molar ratio 1:1) was 14%. It also gave an EPS in solution ([4]; EPS:CaCl2:CD molar ratio 1:1:0 (no CD)) of 16%, an EPS in solution ([4]; EPS:CaCl2:CD molar ratio 1:2:0 (no CD)) of 4% and an EPS in solution ([4]; EPS:CaCl2:CD molar ratio 1:4:0 (no CD)) of 4%. The “reprecipitation of the drug” value [5] was “induced by cations and in particular by calcium ions”.
With C[C@]12CC[C@@H]3c4ccc(OC(=O)N(CCCl)CCCl)cc4CC[C@H]3[C@@H]1CC[C@@H]2OP(=O)(O)O [Estramustine-17-phosphate] the “redissolution of already formed precipitate with calcium” value ([1]; with cyclodextrins) was “redissolve the already formed precipitate”, the “passage in solution of the drug in the presence of calcium ions” value ([1]; with cyclodextrins, calcium ions in dissolution medium) was “permit the passage in solution of the drug” and the “effects of reprecipitation induced by cations” value ([1]; with cyclodextrins) was “avoid the reprecipitation”.
In the case of C[C@H](N)C(=O)O[C@H]1CC[C@H]2[C@@H]3CCc4cc(OC(=O)N(CCCl)CCCl)ccc4[C@H]3CC[C@]12C [Estramustine-17-L-alaninate], the “effect of reprecipitation by anionic species” value ([1]; with cyclodextrins) is listed as “avoiding any effect of reprecipitation by anionic species” and the “reprecipitation of the drug” value [5] is listed as “induced by anionic species, such as chlorine ions”.

Reference: US5712260A, “Estramustine formulations with improved pharmaceutical properties” (Pharmacia AB, priority 1994, dated 1998)
